{"source": "patent US4816560A", "about": "“Partially retro-inverted tuftsin analogues, method for the preparation thereof and pharmaceutical compositions containing them” (priority 1986, dated 1989)", "tested_on": "peritoneal M.phi. from normal C3H/HeN mice", "experiment": "macrophage (M.phi.) phagocytic stimulation assay (ingestion of killed yeast cells, Zymosan)", "assay_type": "cell-based", "excerpt": "The compounds of formula I, including the pharmaceutically acceptable esters, amides and salts, are active as immunostimulating agents. […] This assay, carried out in comparison with tuftsin, has been performed according to a modification of the method described by Bar-Shavit et al. in J.Cell.Physiol., 100, p.55 (1979). More particularly, peritoneal M.phi. from normal C3H/HeN mice are harvested by washing of the peritoneal cavity and purified by adherence as described in J.Immunol., 132, p.1987 (1984). Monolayers of 1×10^6 adherent peritoneal cells (95-98% of the monocyte-M.phi. series as judged by morphology and latex phagocytosis) are cultured for 20 h at 37° C. in RPMI-1640 medium supplemented with 50 μg/ml gentamycin, 25 mM HEPES buffer, 2 mM L-glutamine and 10% heat-inactivated fetal bovine serum (FBS). At the end of the incubation, M.phi. are washed and then exposed for 15 minutes at 37° C. to 1.3 ml/plate of culture medium either alone (blank) or containing tuftsin or a compound of the invention at different concentrations. A 1.5×10^8 cells/ml suspension of killed yeast cells (Zymosan)(0.2 ml) is then added to the plates. M.phi. are incubated for 60 minutes at 37° C., then washed, fixed (2% glutaraldehyde in PBS, 30 minutes, 4° C.) and stained. The percentage of phagocyting M.phi. and the number of ingested Zymosan cells is measured with an optical microscope equipped with a 100x immersion objective. In a representative experiment aimed at comparing the activity of tuftsin with that of the corresponding retro-inverso analogue of example 1, it has been observed that all M.phi. were capable of phagocyting zymosan in the above described conditions.\nAs the poor therapeutical applicability of tuftsin is mainly due to its low stability and to the consequent rapid loss of biological activity, the phagocytosis assay has been repeated comparing the activity of tuftsin and its retro-inverso analogue of example 1, stored for 14 days in solution at 4° C. […] At the concentration of 10^-6 M in fact the compound of Example 1 gave a number of ingested zymosan cells per 100 phagocyting macrophages of 1.8×10^3 (with an immunopotentiating effect corresponding therefore to 136% of the control).", "key": {"[1]": {"conditions": "peptide stored for 14 days in solution at 4° C., concentration 10^-6 M"}}}
{"substance": "{(2RS)-2-[N-(1-amino-2-hydroxy-propyl)carbamyl]-6-amino}-hexanoyl-L-prolyl- L-arginine [Example 1]", "values": [{"measurement": "number of ingested yeast cells (in words)", "setting": "fresh peptide, linearly dependent on peptide concentration", "value": "significantly increased"}, {"measurement": "ingested zymosan cells, % of the control", "setting": "peptide concentration 3×10^-7 M", "value": "170 % of the control"}, {"measurement": "ingested zymosan cells per 100 macrophages", "setting": "peptide concentration 3×10^-7 M, 15 min exposure, then 60 min with Zymosan at 37° C.", "value": "2.2×10^3 ingested zymosan cells per 100 macrophages"}, {"measurement": "ingested zymosan cells per 100 phagocyting macrophages", "setting": "peptide concentration 10^-6 M", "value": "2.44×10^3 ingested zymosan cells per 100 phagocyting macrophages"}, {"measurement": "ingested zymosan cells, % of the control", "setting": "peptide concentration 10^-6 M", "value": "188 % of the control"}, {"measurement": "phagocytosis stimulation (in words)", "setting": "peptide stored for 14 days in solution at 4° C.", "value": "still significant even if less than above"}, {"measurement": "immunopotentiating effect, % of the control", "setting": "[1]", "value": "136 % of the control"}, {"measurement": "ingested zymosan cells per 100 phagocyting macrophages", "setting": "[1]", "value": "1.8×10^3 ingested zymosan cells per 100 phagocyting macrophages"}]}
